The target of one experiment is hMC4-R (Homo sapiens, UniProt P32245). In words: Competitive inhibition binding assay, 125I-NDP-α-MSH, hMC4-R membranes. Conditions: 1 μM test compound; 0.4 nM 125I-NDP-α-MSH; mean of triplicate; results less than 0% reported as 0%; read-out: Inhibition at 1 μM MC4-R. On the procedure:
(§1) Competitive inhibition assay. A competitive inhibition binding assay was conducted using membranes prepared from hMC1-R or B-16 mouse melanoma cells (containing MC1-R), hMC3-R, hMC4-R, and hMC5-R, and using 0.4 nM ^125I-NDP-α-MSH (New England Nuclear, Boston, Mass., USA) in 50 mM HEPES buffer containing 1 mM MgCl2, 2 mM CaCl2, and 5 mM KCl, at pH 7.2. The assay tube also contained a chosen concentration of the test compound of this invention, typically a 1 μM concentration, for determining its efficacy in inhibiting the binding of ^125I-NDP-α-MSH to its receptor. Non-specific binding was measured by complete inhibition of binding of ^125I-NDP-α-MSH in the assay with the presence of 1 μM α-MSH.
(§2) Incubation was for 90 minutes at room temperature, after which the assay mixture was filtered and the membranes washed three times with ice cold buffer. The filter was dried and counted in a gamma counter for remaining radioactivity bound to the membranes. 100% specific binding was defined as the difference in radioactivity (cpm) bound to cell membranes in the absence and presence of 1 μM α-MSH. The cpm obtained in the presence of test compounds are normalized with respect to 100% specific binding to determine the percent inhibition of ^125I-NDP-a-MSH binding. Each assay was conducted in triplicate and the actual mean values are described, with results less than 0% reported as 0%.

For a further experiment, the target named is hMC5-R (Homo sapiens, UniProt P33032). As to the kind of experiment: Competitive inhibition binding assay, 125I-NDP-α-MSH, hMC5-R membranes. The following applies: 1 μM test compound; 0.4 nM 125I-NDP-α-MSH; mean of triplicate; results less than 0% reported as 0%; read-out: Inhibition at 1 μM MC5-R. On the procedure:
as §1, §2

Another experiment addresses hMC1-R (Homo sapiens, UniProt Q01726). In words: Competitive inhibition binding assay, 125I-NDP-α-MSH, hMC1-R membranes. Conditions: 1 μM test compound; 0.4 nM 125I-NDP-α-MSH; mean of triplicate; results less than 0% reported as 0%; read-out: Inhibition at 1 μM MC1-R (human). On the procedure: as §1, §2
Experiment [1] concerns the target T1, B-16 mouse melanoma cells (containing MC1-R) (Mus musculus, UniProt Q01727).
T1 construct: B-16 mouse melanoma cells (containing MC1-R); endogenous in cells; host or cells: B-16 mouse melanoma cells
In words: Competitive inhibition binding assay, 125I-NDP-α-MSH, B-16 mouse melanoma cell membranes. The following applies: 1 μM test compound; 0.4 nM 125I-NDP-α-MSH; mean of triplicate; results less than 0% reported as 0%; read-out: Inhibition at 1 μM MC1-R (murine). The method, then: as §1, §2

For another experiment, the target named is hMC3-R (Homo sapiens, UniProt P41968). As to the kind of experiment: Competitive inhibition binding assay, 125I-NDP-α-MSH, hMC3-R membranes. Conditions: 1 μM test compound; 0.4 nM 125I-NDP-α-MSH; mean of triplicate; results less than 0% reported as 0%; read-out: Inhibition at 1 μM MC3-R. On the procedure:
as §1, §2

hMC5-R, sequence (P33032 whole entry): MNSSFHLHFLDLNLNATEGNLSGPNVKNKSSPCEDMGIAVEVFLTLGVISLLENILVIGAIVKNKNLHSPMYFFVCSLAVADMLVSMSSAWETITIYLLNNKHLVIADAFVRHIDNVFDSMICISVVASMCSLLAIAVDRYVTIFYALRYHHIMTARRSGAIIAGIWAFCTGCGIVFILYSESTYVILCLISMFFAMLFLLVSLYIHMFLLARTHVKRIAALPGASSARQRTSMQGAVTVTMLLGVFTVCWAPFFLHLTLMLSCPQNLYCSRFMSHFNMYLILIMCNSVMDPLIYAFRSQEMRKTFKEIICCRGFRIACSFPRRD
hMC1-R, sequence (Q01726 whole entry): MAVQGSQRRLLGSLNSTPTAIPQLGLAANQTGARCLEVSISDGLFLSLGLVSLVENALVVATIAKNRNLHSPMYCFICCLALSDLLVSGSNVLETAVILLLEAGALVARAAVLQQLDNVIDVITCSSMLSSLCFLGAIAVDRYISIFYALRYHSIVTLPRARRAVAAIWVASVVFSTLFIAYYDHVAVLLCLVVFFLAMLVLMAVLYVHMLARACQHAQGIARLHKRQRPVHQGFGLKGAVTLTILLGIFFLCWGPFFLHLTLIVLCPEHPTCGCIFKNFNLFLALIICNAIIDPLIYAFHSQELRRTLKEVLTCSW
hMC3-R, sequence (P41968 whole entry): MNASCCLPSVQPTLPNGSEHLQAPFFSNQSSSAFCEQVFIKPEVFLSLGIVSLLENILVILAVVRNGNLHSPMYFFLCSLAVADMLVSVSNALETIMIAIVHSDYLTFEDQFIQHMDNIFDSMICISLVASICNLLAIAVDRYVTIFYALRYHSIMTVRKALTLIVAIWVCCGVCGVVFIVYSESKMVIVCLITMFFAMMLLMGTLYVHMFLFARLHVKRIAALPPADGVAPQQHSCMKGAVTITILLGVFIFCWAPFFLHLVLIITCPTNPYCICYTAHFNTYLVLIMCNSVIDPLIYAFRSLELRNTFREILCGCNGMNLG
hMC4-R, sequence (P32245 whole entry): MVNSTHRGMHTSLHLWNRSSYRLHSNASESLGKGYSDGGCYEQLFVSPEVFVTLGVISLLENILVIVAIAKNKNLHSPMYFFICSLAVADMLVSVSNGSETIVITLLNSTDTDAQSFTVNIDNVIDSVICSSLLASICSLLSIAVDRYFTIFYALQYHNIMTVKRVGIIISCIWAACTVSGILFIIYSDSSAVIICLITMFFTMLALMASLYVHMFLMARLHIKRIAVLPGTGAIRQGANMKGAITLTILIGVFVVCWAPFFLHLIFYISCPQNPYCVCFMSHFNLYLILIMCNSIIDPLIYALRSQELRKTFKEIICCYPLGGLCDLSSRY
T1 sequence (Q01727 whole entry): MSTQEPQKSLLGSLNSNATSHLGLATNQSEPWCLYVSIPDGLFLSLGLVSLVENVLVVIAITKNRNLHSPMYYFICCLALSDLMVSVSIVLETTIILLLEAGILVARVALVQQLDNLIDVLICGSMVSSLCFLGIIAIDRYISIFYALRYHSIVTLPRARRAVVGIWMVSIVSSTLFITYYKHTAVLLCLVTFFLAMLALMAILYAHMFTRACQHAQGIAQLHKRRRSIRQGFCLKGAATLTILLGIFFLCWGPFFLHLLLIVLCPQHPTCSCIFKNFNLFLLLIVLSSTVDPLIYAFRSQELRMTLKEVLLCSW

In the case of `N[C@H](Cc1ccccc1)C(=O)N1C[C@H](Cc2ccccc2)NC[C@H]1Cc1ccccc1` [Example 6, (R)-2-Amino-1-((2R,5S)-2,5-dibenzyl-piperazin-1-yl)-3-phenyl-propan-1-one], the inhibition at 1 µM stood at 4% at hMC4-R; 13% at hMC5-R; 0% on hMC1-R; 0% in experiment [1]; 12% at hMC3-R.

In the case of `O=C(CCc1ccc(Cl)cc1Cl)N1C[C@H](Cc2ccccc2)NC[C@H]1Cc1ccc2ccccc2c1` [Example 2, 1-((2R,5S)-5-Benzyl-2-naphthalen-2-ylmethyl-piperazin-1-yl)-3-(2,4-dichloro-phenyl)-propan-1-one], the inhibition at 1 µM was determined as 18% at hMC4-R, 6% on hMC5-R, 9% at hMC1-R and 9% on hMC3-R.

Turning to `N[C@H](Cc1ccc(Cl)cc1Cl)C(=O)N1C[C@H](Cc2ccccc2)NC[C@H]1Cc1ccc2ccccc2c1` [Example 5, (R)-2-Amino-1-((2R,5S)-5-benzyl-2-naphthalen-2-ylmethyl-piperazin-1-yl)-3-(2,4-dichloro-phenyl)-propan-1-one], the inhibition at 1 µM at hMC4-R came out at 34%; at hMC5-R, 22%; at hMC1-R it was 0%; at hMC3-R, 12%.

Take `N[C@H](Cc1ccccc1)C(=O)N1C[C@@H](Cc2ccc3ccccc3c2)NC[C@@H]1Cc1ccccc1` [Example 7, (R)-2-Amino-1-((2S,5R)-2-benzyl-5-naphthalen-2-ylmethyl-piperazin-1-yl)-3-phenyl-propan-1-oneylamino-3-phenyl-propan-1-one]: the inhibition at 1 µM worked out at 16% at hMC4-R; 13% on hMC5-R; 17% at hMC1-R; 0% in experiment [1]; 9% on hMC3-R.

Take `N[C@H](Cc1ccccc1)C(=O)N1C[C@H](Cc2ccccc2)NC[C@H]1Cc1ccc2ccccc2c1` [Example 1, (R)-2-Amino-1-((2R,5S)-5-benzyl-2-naphthalen-2-ylmethyl-piperazin-1-yl)-3 phenyl-propan-1-one]: the inhibition at 1 µM on hMC4-R worked out at 33%; on hMC5-R, 8%; on hMC1-R, 0%; on hMC3-R it was 14%.

Take `N[C@@H](Cc1ccccc1)C(=O)N1C[C@H](Cc2ccccc2)NC[C@H]1Cc1ccc2ccccc2c1` [Example 4, (S)-2-Amino-1-((2R,5S)-5-benzyl-2-naphthalen-2-ylmethyl-piperazin-1-yl)-3-phenyl-propan-1-one]: the inhibition at 1 µM on hMC4-R was found to be 25%; at hMC5-R it was 11%; at hMC1-R, 6%; on hMC3-R, 13%.

Regarding `N[C@@H](Cc1c[nH]cn1)C(=O)N[C@H](Cc1ccc(Cl)cc1)C(=O)N1CCN[C@H](Cc2ccc3ccccc3c2)C1` [Example 20, (S)-2-Amino-N—[(R)-1-(4-chloro-benzyl)-2-((R)-3-naphthalen-2-ylmethyl-piperazin-1-yl)-2-oxo-ethyl]-3-(1H-imidazol-4-yl)-propionamide], the inhibition at 1 µM at hMC4-R amounted to 25%; on hMC5-R, 0%; in experiment [1], 71%; at hMC3-R, 18%.

Turning to `N[C@H](Cc1ccc2ccccc2c1)C(=O)N1C[C@H](Cc2ccccc2)NC[C@H]1Cc1ccc2ccccc2c1` [Example 3, (R)-2-Amino-1-((2R,5S)-5-benzyl-2-naphthalen-2-ylmethyl-piperazin-1-yl)-3-naphthalen-2-yl-propan-1-one], the inhibition at 1 µM on hMC4-R was found to be 39%; on hMC5-R, 21%; at hMC1-R it was 10%; on hMC3-R, 19%.

As to `O=C(N[C@H](Cc1ccccc1Cl)C(=O)N1CCN[C@H](Cc2ccc3ccccc3c2)C1)[C@H]1Cc2ccccc2CN1` [Example 13, (R)-1,2,3,4-Tetrahydro-isoquinoline-3-carboxylic acid [(R)-1-(2-chloro-benzyl)-2-((R)-3-naphthalen-2-ylmethyl-piperazin-1-yl)-2-oxo-ethyl]-amide], the inhibition at 1 µM at hMC4-R was 19%; at hMC5-R, 20%; in experiment [1], 24%; on hMC3-R it was 17%.

What is called inhibition is the share of the control response that was lost under treatment.

For the origin of these results see patent publication US7709484B1, “Substituted melanocortin receptor-specific piperazine compounds” (Palatin Technologies, Inc., priority 2004, dated 2010).
